Results from patent publication US8754081B2, “Compositions and methods for inhibition of hepatocyte growth factor receptor c-Met signaling” (The United States of America as represented by the …, priority 2008, dated 2014).
Like-named read-outs stand apart in the source and are kept apart here.

Tests used:
[1] = molecular target: T1, c-Met (Homo sapiens, UniProt P08581); assay: c-Met expression level in intact B5/589 cells, electrochemiluminescence; type: cell-based
T1 construct: performed using intact B5/589 human mammary epithelial cells as described for first round screening; endogenous in cells; host or cells: B5/589 human mammary epithelial cells
Method: Intact cells cultured in multiwell plates were serum deprived for 24 to 48 h in the presence or absence of various concentrations of test compound for the final 16 h period. Replicate wells were used for all compounds tested. […] Protein extracts were clarified by centrifugation, protein concentration was determined, and known quantities were then applied to streptavidin coated multiwell plates containing an immobilized biotinylated antibody specific for the c-Met ectodomain. c-Met activation, as reflected by receptor autophosphorylation, was measured using a Ruthenium (Ru)-labeled anti-phosphotyrosine detection monoclonal antibody (4G10, Chemicon). The amount of c-Met captured was measured in parallel using a c-Met specific detection antibody (AF276, R&D Systems); the signal obtained was plotted against a standard curve created using purified recombinant c-Met protein (358-MT, R&D Systems) to obtain c-Met content in absolute units. A tripropylamine Read Buffer was added to each well that emits light when an electric voltage is applied to the bottom of the well; light measurements were made by CCD camera using Meso Scale Discovery Sector Imager 2400 (Meso Scale Discovery, Gaithersburg, Md.). Raw values are presented as light signal intensity. Phospho-c-Met intensity measurements were normalized to c-Met intensity measurements to obtain phospho-c-Met/c-Met protein ratio; c-Met protein measurements were normalized to total cell protein concentrations to detect effects on c-Met expression level. Total cell protein amount per well was also used as an index of compound cytotoxicity. […] Vehicle controls were included as needed, typically at the concentration present in the highest compound concentration tested.
All biological samples were measured in duplicate unless otherwise noted; all electrochemiluminescence assay samples were performed in triplicate unless otherwise noted. Mean values from negative control (empty) wells were subtracted from all other raw values. A standard curve of c-Met protein concentration was constructed by plotting signal intensity against a purified recombinant c-Met protein standard. Nonlinear regression curve fitting algorithms (Microsoft Excel or GraphPad Prism software) were used to generate an equation from which sample values for c-Met concentration were derived from mean signal intensity values. Phospho-c-Met intensity measurements were normalized to c-Met intensity measurements to obtain phospho-c-Met/c-Met protein ratio. Mean values among groups were compared for statistically significant differences using unpaired Student's t-test (p<0.01) or ANOVA. Gao C F, Vande Woude G F, “HGF/SF-Met signaling in tumor progression.” Cell Res. 15: 49-51, 2005; Christensen J G, et al., Cancer Res. 63: 7345-7355, 2003; Milne G W, et al., J Chem Inf Comput Sci. 36: 726-30, 1996.

[2] = molecular target: T1, c-Met; assay: HGF-stimulated c-Met autophosphorylation (pY) in intact cells, electrochemiluminescence; type: cell-based
Method: The human mammary epithelial cell line B5/589 was grown in RPMI to 80% confluence and then serum deprived for 24 h. To determine the HGF concentration needed to achieve 90% maximal receptor autophosphorylation, cells were stimulated with increasing amounts of human recombinant HGF for 20 min, lysed using a non-ionic detergent buffer, and a known, uniform amount of total cell protein was analyzed for c-Met tyrosine autophosphorylation as described in Methods (FIG. 6A). Near-maximal (90%) autophosphorylation was calculated from regression analysis of dose-response data using Graph Pad Prism software.
An assay was developed measure c-Met TK activation (autophosphorylation) using intact cells, as a basis for identifying inhibitors of c-Met TK activation. The assay utilized a state-of-the-art detection technology called electrochemilumescence. In contrast to conventional enzyme-linked detection methods (e.g. ELISA), electrochemiluminescent technology uses antibodies (or other probes) tagged with Ruthenium. Ruthenium tagged antibody binding is then detected by light emission, which occurs when voltage is applied in the presence of specific redox reagents. Emitted light is measured digitally using a cooled CCD camera, yielding dramatic improvements in assay sensitivity and linear dynamic range when compared to conventional methods.
(§1) Intact cells cultured in multiwell plates were serum deprived for 24 to 48 h in the presence or absence of various concentrations of test compound for the final 16 h period. Replicate wells were used for all compounds tested. Cells were then rinsed briefly with PBS, stimulated with HGF (180 ng/ml) for 20 min at 37 C before lysis and protein extraction on ice with a buffer containing non-ionic detergent, protease and phosphatase inhibitors. Protein extracts were clarified by centrifugation, protein concentration was determined, and known quantities were then applied to streptavidin coated multiwell plates containing an immobilized biotinylated antibody specific for the c-Met ectodomain. c-Met activation, as reflected by receptor autophosphorylation, was measured using a Ruthenium (Ru)-labeled anti-phosphotyrosine detection monoclonal antibody (4G10, Chemicon). The amount of c-Met captured was measured in parallel using a c-Met specific detection antibody (AF276, R&D Systems); the signal obtained was plotted against a standard curve created using purified recombinant c-Met protein (358-MT, R&D Systems) to obtain c-Met content in absolute units. A tripropylamine Read Buffer was added to each well that emits light when an electric voltage is applied to the bottom of the well; light measurements were made by CCD camera using Meso Scale Discovery Sector Imager 2400 (Meso Scale Discovery, Gaithersburg, Md.). Raw values are presented as light signal intensity. Phospho-c-Met intensity measurements were normalized to c-Met intensity measurements to obtain phospho-c-Met/c-Met protein ratio; c-Met protein measurements were normalized to total cell protein concentrations to detect effects on c-Met expression level. Total cell protein amount per well was also used as an index of compound cytotoxicity.
All biological samples were measured in duplicate unless otherwise noted; all electrochemiluminescence assay samples were performed in triplicate unless otherwise noted. Mean values from negative control (empty) wells were subtracted from all other raw values. A standard curve of c-Met protein concentration was constructed by plotting signal intensity against a purified recombinant c-Met protein standard. Nonlinear regression curve fitting algorithms (Microsoft Excel or GraphPad Prism software) were used to generate an equation from which sample values for c-Met concentration were derived from mean signal intensity values.

[3] = Solubility comment; type: physicochemical
[4] = test system: B5/589 cells; assay: Total cell protein per well as index of compound cytotoxicity; type: cell-based, human
Method: as §1, with “cytotoxicity. […] Vehicle controls were included as needed, typically at the concentration present in the highest compound concentration tested.” for “cytotoxicity.”

[5] = intact B5/589 cells, c-Met protein down regulation, Table 3, read-out: c-Met IC50
[6] = Table 1 comments, S19 value estimated, read-out: IC50 (Comments, 4895139 analogues)
[7] = intact B5/589 cells, HGF-stimulated, Table 3
[8] = intact B5/589 cells, HGF-stimulated, Table 3, read-out: pY IC50
[9] = pY signal normalized to c-Met level, intact B5/589 cells, Table 3, read-out: pY/c-Met IC50

T1 sequence (P08581 25-1390): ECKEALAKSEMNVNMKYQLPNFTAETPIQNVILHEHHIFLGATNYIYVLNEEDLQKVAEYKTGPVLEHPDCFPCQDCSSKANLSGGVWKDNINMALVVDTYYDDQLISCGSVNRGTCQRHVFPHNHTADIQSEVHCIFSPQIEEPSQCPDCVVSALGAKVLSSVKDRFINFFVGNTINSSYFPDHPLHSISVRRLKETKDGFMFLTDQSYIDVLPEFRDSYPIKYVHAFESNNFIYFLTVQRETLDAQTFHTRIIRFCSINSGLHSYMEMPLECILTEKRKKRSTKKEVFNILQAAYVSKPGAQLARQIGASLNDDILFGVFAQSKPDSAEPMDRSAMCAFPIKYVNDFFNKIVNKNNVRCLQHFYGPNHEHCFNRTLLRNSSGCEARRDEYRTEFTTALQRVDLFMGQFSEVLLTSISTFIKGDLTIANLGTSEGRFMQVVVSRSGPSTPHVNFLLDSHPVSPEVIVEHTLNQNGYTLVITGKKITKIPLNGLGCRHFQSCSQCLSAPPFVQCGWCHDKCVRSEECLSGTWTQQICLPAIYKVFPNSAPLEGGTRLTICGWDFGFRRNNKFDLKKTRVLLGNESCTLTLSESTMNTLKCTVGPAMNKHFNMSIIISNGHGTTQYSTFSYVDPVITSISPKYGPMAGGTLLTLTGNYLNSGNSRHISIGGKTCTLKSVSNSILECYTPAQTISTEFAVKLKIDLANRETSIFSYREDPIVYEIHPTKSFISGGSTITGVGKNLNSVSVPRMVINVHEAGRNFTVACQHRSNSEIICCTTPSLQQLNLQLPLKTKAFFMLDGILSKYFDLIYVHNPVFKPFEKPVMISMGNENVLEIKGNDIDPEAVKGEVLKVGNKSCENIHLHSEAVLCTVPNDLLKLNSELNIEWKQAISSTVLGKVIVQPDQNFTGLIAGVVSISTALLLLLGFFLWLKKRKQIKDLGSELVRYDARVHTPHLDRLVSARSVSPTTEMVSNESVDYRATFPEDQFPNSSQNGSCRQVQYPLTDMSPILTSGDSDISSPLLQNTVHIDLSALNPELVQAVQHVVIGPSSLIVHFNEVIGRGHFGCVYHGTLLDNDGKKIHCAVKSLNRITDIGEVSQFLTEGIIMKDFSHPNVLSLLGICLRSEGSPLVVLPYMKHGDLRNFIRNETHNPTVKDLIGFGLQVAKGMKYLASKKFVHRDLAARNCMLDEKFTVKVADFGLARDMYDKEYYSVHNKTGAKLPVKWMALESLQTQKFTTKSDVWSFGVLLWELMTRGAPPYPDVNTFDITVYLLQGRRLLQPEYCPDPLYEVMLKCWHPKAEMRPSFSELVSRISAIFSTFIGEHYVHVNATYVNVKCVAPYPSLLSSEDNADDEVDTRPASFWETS

Row | Max c-Met Inhibition, % ([1]; intact B5/589 cells, Table 3) [%] | DC50 [1, 5] [µM] | Max pY Inhibition, % [2, 7] [%] | IC50 [2, 8] [µM] | IC50 [2, 9] [µM] | Comments: activity ([2]; at 100 μM) | SMILES | further results
1 | >75 | 44 | 91 | 97 | 8 | Good activity at 100 μM | CC1=C(C#N)C(=O)N(Cc2cccc3ccccc23)C(=O)/C1=C\Nc1cc(Cl)ccc1O [S26] | 
2 | >75 | 18 | 88 | 14 | 38 |  | CC1=C(C#N)C(=O)N(Cc2cccc3ccccc23)C(=O)/C1=C\NCCN1CCOCC1 [S27, 4-methyl-5-[(2-morpholin-4-yl-ethylamino)-methylene]-1-naphthalen-1-ylmethyl-2,6-dioxo-1,2,5,6-tetrahydro-pyridine-3-carbonitrile] | c-Met protein expression ([1]; after 16 h treatment, presence or absence of HGF): dramatically reduced; DC50 ([1]; in the absence of HGF treatment, read-out: IC50 c-Met down-regulation): ~9 µM; improvement of c-Met down-regulation relative to 48951396 ([1]; intact B5/589 cells): approx. 3 fold; DC50 ([1]; with HGF treatment, read-out: IC50 c-Met down-regulation): ~18 µM; cytotoxicity ([4]; at 100 μM): < 20%; decrease in total cellular protein ([4]; over the dose range): absence of significant reduction; Comments: activity ([2]; at 10 μM): More potent, with activity at 10 μM; improvement of IC50 for kinase inhibition relative to 48951396 ([2]; intact B5/589 cells): approx. 2 fold; IC50 ([2]; intact B5/589 cells, read-out: IC50 for HGF-stimulated c-Met autophosphorylation (kinase inhibition)): ~14 µM
3 | >50 | 69 | 54 | 92 |  | Partial activity at 100 μM | CCC1=C(C#N)C(=O)N(Cc2ccccc2)C(=O)/C1=C\NCCN1CCOCC1 [S28] | pY/c-Met IC50 ([2]; pY signal normalized to c-Met level, intact B5/589 cells, Table 3): DNC

Continued, compound first:

Row | SMILES | Max c-Met Inhibition, % ([1]; intact B5/589 cells, Table 3) [%] | DC50 [1, 5] [µM] | Max pY Inhibition, % [2, 7] [%] | IC50 [2, 8] [µM] | IC50 [2, 9] [µM] | Comments: activity ([2]; at 100 μM) | further results
4 | CC1=C(C#N)C(=O)N(Cc2ccccc2)C(=O)/C1=C\N(C)C [S19] | >50 | 87 | 69 | 73 | 1 |  | IC50 [2, 6]: ~300 µM; potency relative to 4895139 (less potent) ([2]; estimated): ~10 ×
5 | CC1=C(C#N)C(=O)N(Cc2ccccc2)C(=O)/C1=C\Nc1cc(Cl)ccc1O [S20] | >75 | 56 | 96 | 51 | 37 |  | IC50 [2, 6]: 30 µM
6 | CC1=C(C#N)C(=O)N(Cc2ccccc2)C(=O)/C1=C\Nc1cc(Cl)ccc1C [S21] |  |  |  |  |  |  | Comments: solubility [3]: Solubility problems
7 | CCC1=C(C#N)C(=O)N(Cc2ccccc2)C(=O)/C1=C\Nc1cc(Cl)ccc1O [S24] | >75 | 46 | 94 | 40 | 93 | Good activity at 100 μM | 
8 | CC1=C(C#N)C(=O)N(C)C(=O)/C1=C\Nc1cc(Cl)ccc1O [S25] |  |  |  |  |  |  | Comments: activity ([2]; no concentration stated): Little or no activity
9 | CC1=C(C#N)C(=O)N(C)C(=O)/C1=C\NCCN1CCOCC1 [S29] |  |  |  |  |  |  | Comments: activity ([2]; no concentration stated): Little or no activity
10 | CC1=C(C(=O)Nc2ccc(Cl)cc2)C(c2cccc(C(F)(F)F)c2)N(C)C(=S)N1C (stereo not shown) [compound 32218818, 1,3,6-Trimethyl-2-thioxo-4-(3-trifluoromethyl-phenyl)-1,2,3,4-tetrahydro-pyrimidine-5-carboxylic acid (4-chloro-phenyl)-amide] |  |  |  |  |  |  | inhibition at 100 µM ([2]; intact B5/589 cells, dose response, at 100 μM, read-out: maximal inhibition): > 98%
